target: T1, recombinant human NK3 receptor (Homo sapiens, UniProt P29371); experiment: [3H]SR142801 competition binding assay; settings: hNK3 receptor binding, [3H]SR142801, membranes from HEK293 cells transiently expressing recombinant human NK3 receptor
T1 construct: expressed in transfected cells; host or cells: HEK293 cells (transient expression), membranes
T1 sequence (P29371 1-465): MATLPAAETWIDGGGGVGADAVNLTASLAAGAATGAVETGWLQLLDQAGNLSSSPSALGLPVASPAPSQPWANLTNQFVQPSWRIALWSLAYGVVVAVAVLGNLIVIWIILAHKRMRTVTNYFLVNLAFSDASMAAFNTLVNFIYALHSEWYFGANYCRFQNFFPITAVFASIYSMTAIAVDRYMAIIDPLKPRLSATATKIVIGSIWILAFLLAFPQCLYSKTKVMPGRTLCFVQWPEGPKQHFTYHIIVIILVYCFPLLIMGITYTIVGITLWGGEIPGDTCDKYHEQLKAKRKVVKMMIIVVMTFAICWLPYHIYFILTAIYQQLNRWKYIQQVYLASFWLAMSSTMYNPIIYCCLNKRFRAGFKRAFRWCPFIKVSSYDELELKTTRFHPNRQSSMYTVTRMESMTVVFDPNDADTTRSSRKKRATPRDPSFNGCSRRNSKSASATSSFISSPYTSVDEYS
Protocol: [^3H]SR142801 competition binding assay
hNK3 receptor binding experiment were performed using [^3H]SR142801 (Catalog No. TRK1035, specific activity: 74.0 Ci/mmol, Amersham, GE Healthcare UK limited, Buckinghamshire, UK) and membrane isolated from HEK293 cells transiently expressing recombinant human NK3 receptor. After thawing, the membrane homogenates were centrifuged at 48,000×g for 10 min at 4° C., the pellets were resuspended in the 50 mM Tris-HCl, 4 mM MnCl2, 1 μM phosphoramidon, 0.1% BSA binding buffer at pH 7.4 to a final assay concentration of 5 μg protein/well. […] At the end of the incubation, membranes were filtered onto unitfilter (96-well white microplate with bonded GF/C filter preincubated 1 h in 0.3% PEI+0.3% BSA, Packard BioScience, Meriden, Conn.) with a Filtermate 196 harvester (Packard BioScience) and washed 4 times with ice-cold 50 mM Tris-HCl, pH 7.4 buffer. Nonspecific binding was measured in the presence of 10 μM SB222200 for both radioligands. The radioactivity on the filter was counted (5 min) on a Packard Top-count microplate scintillation counter with quenching correction after addition of 45 μl of microscint 40 (Canberra Packard S. A., Zürich, Switzerland) and shaking for 1 h. Inhibition curves were fitted according to the Hill equation: y=100/(1+(x/IC50)^nH), where nH=slope factor using Excel-fit 4 software (Microsoft). IC50 values were derived from the inhibition curve and the affinity constant (Ki) values were calculated using the Cheng-Prussoff equation Ki=IC50/(1+[L]/KD) where [L] is the concentration of radioligand and KD is its dissociation constant at the receptor, derived from the saturation isotherm. All experiments were performed in duplicate and the mean±standard error (SEM) of the individual Ki values was calculated.

| Compound | Ki |
| --- | --- |
| CN(Cc1ccc(C(F)(F)F)c(F)c1)[C@H]1CN(C(=O)c2ccc(C#N)cc2F)C[C@@H]1c1ccc(Cl)c(Cl)c1 (racemic) [Example 19, 4-{(3SR,4RS)-3-(3,4-Dichloro-phenyl)-4-[(3-fluoro-4-trifluoromethyl-benzyl)-methyl-amino]-pyrrolidine-1-carbonyl}-3-fluoro-benzonitrile] | 12.9 nM |
| CN(Cc1ccc(C(F)(F)F)c(F)c1)[C@H]1CN(C(=O)c2ccc(N3CCN(C(=O)OC(C)(C)C)CC3)nc2)C[C@@H]1c1ccc(Cl)c(Cl)c1 (racemic) [Example 63, 4-(5-{(3SR,4RS)-3-(3,4-Dichloro-phenyl)-4-[(3-fluoro-4-trifluoromethyl-benzyl)-methyl-amino]-pyrrolidine-1-carbonyl}-pyridin-2-yl)-piperazine-1-carboxylic acid tert-butyl ester] | 24.7 nM |
| CN(Cc1ccc(C(F)(F)F)c(F)c1)[C@H]1CN(C(=O)c2ccc(N3CCOCC3)cc2)C[C@@H]1c1ccc(Cl)c(Cl)c1 (racemic) [Example 38, {(3SR,4RS)-3-(3,4-Dichloro-phenyl)-4-[(3-fluoro-4-trifluoromethyl-benzyl)-methyl-amino]-pyrrolidin-1-yl}-(4-morpholin-4-yl-phenyl)-methanone] | 9 nM |
| CN(Cc1ccc(C(F)(F)F)c(F)c1)[C@H]1CN(C(=O)c2ccc(N3CCCS3(=O)=O)cc2)C[C@@H]1c1ccc(Cl)c(Cl)c1 (racemic) [Example 42, {(3SR,4RS)-3-(3,4-Dichloro-phenyl)-4-[(3-fluoro-4-trifluoromethyl-benzyl)-methyl-amino]-pyrrolidin-1-yl}-[4-(1,1-dioxo-1-6-isothiazolidin-2-yl)-phenyl]-methanone] | 33.5 nM |
| CN(Cc1ccc(C(F)(F)F)c(F)c1)[C@H]1CN(C(=O)c2ccc(C#N)cc2)C[C@@H]1c1ccc(Cl)c(F)c1 (racemic) [Example 66, 4-{(3SR,4RS)-3-(4-Chloro-3-fluoro-phenyl)-4-[(3-fluoro-4-trifluoromethyl-benzyl)-methyl-amino]-pyrrolidine-1-carbonyl}-benzonitrile] | 12.6 nM |
| CN(Cc1ccc(C#N)c(F)c1)[C@H]1CN(C(=O)c2ccc(C#N)cc2)C[C@@H]1c1ccc(Cl)c(Cl)c1 (racemic) [Example 18, 4-({[(3RS,4SR)-1-(4-Cyano-benzoyl)-4-(3,4-dichloro-phenyl)-pyrrolidin-3-yl]-methyl-amino}-methyl)-2-fluoro-benzonitrile] | 42 nM |
| CN(Cc1ccc(C(F)(F)F)c(F)c1)[C@H]1CN(C(=O)c2ccc(-c3ccncc3)cc2)C[C@@H]1c1ccc(Cl)c(Cl)c1 (racemic) [Example 45, {(3SR,4RS)-3-(3,4-Dichloro-phenyl)-4-[(3-fluoro-4-trifluoromethyl-benzyl)-methyl-amino]-pyrrolidin-1-yl}-(4-pyridin-4-yl-phenyl)-methanone] | 2.5 nM |
| CN(Cc1ccc(C(F)(F)F)c(F)c1)[C@H]1CN(C(=O)c2ccc(-c3cccnc3)cc2)C[C@@H]1c1ccc(Cl)c(Cl)c1 (racemic) [Example 44, {(3SR,4RS)-3-(3,4-Dichloro-phenyl)-4-[(3-fluoro-4-trifluoromethyl-benzyl)-methyl-amino]-pyrrolidin-1-yl}-(4-pyridin-3-yl-phenyl)-methanone] | 5.6 nM |

Further lines, results first:

| Ki | Compound |
| --- | --- |
| 38.3 nM | CN(Cc1ccc(C(F)(F)F)c(F)c1)[C@H]1CN(C(=O)c2ccc3c(c2)OCO3)C[C@@H]1c1ccc(Cl)c(Cl)c1 (racemic) [Example 17, Benzo[1,3]dioxol-5-yl-{(3SR,4RS)-3-(3,4-dichloro-phenyl)-4-[(3-fluoro-4-trifluoromethyl-benzyl)-methyl-amino]-pyrrolidin-1-yl}-methanone] |
| 14.6 nM | CN(Cc1ccc(C(F)(F)F)c(F)c1)[C@H]1CN(C(=O)c2ccc3cnccc3n2)C[C@@H]1c1ccc(Cl)c(Cl)c1 (racemic) [Example 51, {(3SR,4RS)-3-(3,4-Dichloro-phenyl)-4-[(3-fluoro-4-trifluoromethyl-benzyl)-methyl-amino]-pyrrolidin-1-yl}-[1,6]naphthyridin-2-yl-methanone] |
| 6.8 nM | CC(=O)c1ccc(C(=O)N2C[C@H](c3ccc(Cl)c(Cl)c3)[C@@H](N(C)Cc3ccc(C(F)(F)F)c(F)c3)C2)cc1 (racemic) [Example 24, 1-(4-{(3SR,4RS)-3-(3,4-Dichloro-phenyl)-4-[(3-fluoro-4-trifluoromethyl-benzyl)-methyl-amino]-pyrrolidine-1-carbonyl}-phenyl)-ethanone] |
| 37.3 nM | CC(=O)Nc1ccc(C(=O)N2C[C@H](c3ccc(Cl)c(Cl)c3)[C@@H](N(C)Cc3ccc(C(F)(F)F)c(F)c3)C2)cc1 (racemic) [Example 61, N-(4-{(3SR,4RS)-3-(3,4-Dichloro-phenyl)-4-[(3-fluoro-4-trifluoromethyl-benzyl)-methyl-amino]-pyrrolidine-1-carbonyl}-phenyl)-acetamide] |
| 22.3 nM | COc1ncc(C(=O)N2C[C@H](c3ccc(Cl)c(Cl)c3)[C@@H](N(C)Cc3ccc(C(F)(F)F)c(F)c3)C2)cn1 (racemic) [Example 57, {(3SR,4RS)-3-(3,4-Dichloro-phenyl)-4-[(3-fluoro-4-trifluoromethyl-benzyl)-methyl-amino]-pyrrolidin-1-yl}-(2-methoxy-pyrimidin-5-yl)-methanone] |
| 11.1 nM | Cc1cc(C(=O)N2C[C@H](c3ccc(Cl)c(Cl)c3)[C@@H](N(C)Cc3ccc(C(F)(F)F)c(F)c3)C2)ccn1 (racemic) [Example 33, {(3SR,4RS)-3-(3,4-Dichloro-phenyl)-4-[(3-fluoro-4-trifluoromethyl-benzyl)-methyl-amino]-pyrrolidin-1-yl}-(2-methyl-pyridin-4-yl)-methanone] |

system: not given; experiment: not given; settings: phase II trial; altered behavior, delusion, hallucinations, extreme emotions, excited motor activity, incoherent speech; cited from earlier work

| Compound | activity on positive symptoms of schizophrenia |
| --- | --- |
| CC(=O)N(C)C1(c2ccccc2)CCN(CCC[C@]2(c3ccc(Cl)c(Cl)c3)CCCN(C(=O)c3ccccc3)C2)CC1 [SR 142,801, Osanetant] | active |

same assay, conditions: phase II trial; depression, anhedonia, social isolation or memory and attention deficits; cited from earlier work

| Compound | activity in the treatment of negative symptoms |
| --- | --- |
| CC(=O)N(C)C1(c2ccccc2)CCN(CCC[C@]2(c3ccc(Cl)c(Cl)c3)CCCN(C(=O)c3ccccc3)C2)CC1 [SR 142,801, Osanetant] | inactive |

From US8293770B2, “Pyrrolidine derivatives as NK-3 receptor antagonists” (Hoffmann-La Roche Inc., priority 2008, dated 2012)
